Laboratory results from publication PMC13061574 (Nature structural & molecular biology, 2024).

What was measured:
[1] = target: T1, THIK1 (K2P13.1) (Homo sapiens, UniProt Q9HB14, R92A); experiment: TEVC electrophysiology dose–response, activation; format: cell-based
T1 sequence (Q9HB14 1-408 R92A): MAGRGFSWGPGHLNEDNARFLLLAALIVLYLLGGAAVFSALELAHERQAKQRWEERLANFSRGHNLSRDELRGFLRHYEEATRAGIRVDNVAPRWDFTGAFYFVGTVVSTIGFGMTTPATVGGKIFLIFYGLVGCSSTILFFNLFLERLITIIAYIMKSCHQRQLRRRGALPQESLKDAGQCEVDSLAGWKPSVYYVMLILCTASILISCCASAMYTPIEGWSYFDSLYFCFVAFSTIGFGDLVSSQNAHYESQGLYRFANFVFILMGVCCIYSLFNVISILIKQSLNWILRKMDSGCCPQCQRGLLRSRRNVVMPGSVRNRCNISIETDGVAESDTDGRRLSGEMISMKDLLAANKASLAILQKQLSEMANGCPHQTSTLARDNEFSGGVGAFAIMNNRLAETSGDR

[2] = target: T1, THIK1 (K2P13.1); experiment: TEVC electrophysiology, activation; format: cell-based
[3] = target: the molecule itself; experiment: cryo-EM structure

Molecule: CCCCC/C=C\C/C=C\CCCCCCCC(=O)O [EIC, linoleic acid]
- EC50 [1]: 700 nM

Molecule: CC/C=C\C/C=C\C/C=C\C/C=C\C/C=C\CCCC(=O)O [EPA, eicosapentanoic acid]
- TEVC electrophysiology, activation [2]: α-LNL, eicosapentanoic acid (EPA), dihomo-γ-EIC (DGLA) and oleic acid (OA) also activated R92A

Molecule: CCCCCCCC/C=C\CCCCCCCC(=O)O [OA, oleic acid]
- TEVC electrophysiology, activation [2]: α-LNL, eicosapentanoic acid (EPA), dihomo-γ-EIC (DGLA) and oleic acid (OA) also activated R92A

B1: THIK1EM (human K2P13.1 (THIK1) residues 1-350, N59Q, N65Q) (domain or fragment, UniProt Q9HB14 1-350, looked up)
chain: MAGRGFSWGPGHLNEDNARFLLLAALIVLYLLGGAAVFSALELAHERQAKQRWEERLAQFSRGHQLSRDELRGFLRHYEEATRAGIRVDNVRPRWDFTGAFYFVGTVVSTIGFGMTTPATVGGKIFLIFYGLVGCSSTILFFNLFLERLITIIAYIMKSCHQRQLRRRGALPQESLKDAGQCEVDSLAGWKPSVYYVMLILCTASILISCCASAMYTPIEGWSYFDSLYFCFVAFSTIGFGDLVSSQNAHYESQGLYRFANFVFILMGVCCIYSLFNVISILIKQSLNWILRKMDSGCCPQCQRGLLRSRRNVVMPGSVRNRCNISIETDGVAESDTDGRRLSGEMISMK
- stoichiometry N [3]: 2

B2: THIK1EM-S136P (domain or fragment, human, UniProt Q9HB14 1-350, looked up)
chain: MAGRGFSWGPGHLNEDNARFLLLAALIVLYLLGGAAVFSALELAHERQAKQRWEERLAQFSRGHQLSRDELRGFLRHYEEATRAGIRVDNVRPRWDFTGAFYFVGTVVSTIGFGMTTPATVGGKIFLIFYGLVGCPSTILFFNLFLERLITIIAYIMKSCHQRQLRRRGALPQESLKDAGQCEVDSLAGWKPSVYYVMLILCTASILISCCASAMYTPIEGWSYFDSLYFCFVAFSTIGFGDLVSSQNAHYESQGLYRFANFVFILMGVCCIYSLFNVISILIKQSLNWILRKMDSGCCPQCQRGLLRSRRNVVMPGSVRNRCNISIETDGVAESDTDGRRLSGEMISMK
- binding result [3]: binds
